Literature values, collected in patent publication US20110257262A1, “CRYSTALLINE INGENOL MEBUTATE” (LEO PHARMA A/S, priority 2010, published 2011).

Tests used:
skin cancer cells = conditions: via rapid mitochondrial disruption and cell death by primary necrosis
normal cells = conditions: compared with skin cancer cells

**Q.** What does the source list for `C/C=C(/C)C(=O)O[C@H]1C(C)=C[C@]23C(=O)[C@@H](C=C(CO)[C@@H](O)[C@]12O)[C@H]1[C@@H](C[C@H]3C)C1(C)C` [Ingenol mebutate, (1aR,2S,5R,5aS,6S,8aS,9R,10aR)-5,5a-dihydroxy-4-(hydroxy-methyl)-1,1,7,9-tetramethyl-11-oxo-1a,2,5,5a,6,9,10,10a-octahydro-1H2,8a-methanocyclopenta[a]cyclopropa[e]cyclodecen-6-yl(2Z)-2-methylbut-2-enoate]?
**A.** toxicity for skin cancer cells (skin cancer cells): highly toxic; sensitivity of normal cells (normal cells): less sensitive
